Calls of active or inactive are those of the source.
Columns and labels:
[1] = target: T1, Protein RecA (Mycobacterium tuberculosis, UniProt P9WHJ3); test: Fluorescence Cell-Free Homogeneous Dose Retest to Identify Inhibitors of RecA-Intein Splicing Activity. [Related pubchem assays (depositor defined):AID2097, AID2223, AID489010, AID492950]; type: functional
T1 sequence (P9WHJ3 whole entry): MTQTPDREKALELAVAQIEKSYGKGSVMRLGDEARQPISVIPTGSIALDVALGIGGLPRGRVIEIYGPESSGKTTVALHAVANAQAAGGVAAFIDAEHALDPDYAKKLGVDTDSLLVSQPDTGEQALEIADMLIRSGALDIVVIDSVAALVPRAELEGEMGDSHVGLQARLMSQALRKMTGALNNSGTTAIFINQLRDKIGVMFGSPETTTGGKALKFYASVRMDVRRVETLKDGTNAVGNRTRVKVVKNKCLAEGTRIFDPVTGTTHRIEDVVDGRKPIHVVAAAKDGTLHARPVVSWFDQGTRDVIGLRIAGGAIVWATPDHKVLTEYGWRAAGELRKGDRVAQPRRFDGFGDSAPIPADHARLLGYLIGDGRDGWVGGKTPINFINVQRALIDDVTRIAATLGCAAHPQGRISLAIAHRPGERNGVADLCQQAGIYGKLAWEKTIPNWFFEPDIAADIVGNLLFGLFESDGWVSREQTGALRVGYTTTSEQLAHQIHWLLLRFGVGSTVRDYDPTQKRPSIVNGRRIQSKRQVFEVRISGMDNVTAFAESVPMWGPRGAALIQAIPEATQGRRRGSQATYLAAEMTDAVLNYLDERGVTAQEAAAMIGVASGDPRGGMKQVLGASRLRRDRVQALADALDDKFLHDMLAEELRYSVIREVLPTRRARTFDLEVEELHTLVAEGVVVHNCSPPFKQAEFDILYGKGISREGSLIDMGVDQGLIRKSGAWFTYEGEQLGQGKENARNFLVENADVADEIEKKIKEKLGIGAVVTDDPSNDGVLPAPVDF

[2] = target: T2, Streptokinase A (Streptococcus pyogenes serotype M1, UniProt P10520); test: viability-normalized secreted streptokinase activity reduction – plasminogen activation absorbance, OD405, dose response (AID 1914); type: functional, Streptococcus pyogenes M1 GAS;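 note: secreted streptokinase activity via plasminogen activation per viability signal from cell pellet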
T2 sequence (P10520 whole entry): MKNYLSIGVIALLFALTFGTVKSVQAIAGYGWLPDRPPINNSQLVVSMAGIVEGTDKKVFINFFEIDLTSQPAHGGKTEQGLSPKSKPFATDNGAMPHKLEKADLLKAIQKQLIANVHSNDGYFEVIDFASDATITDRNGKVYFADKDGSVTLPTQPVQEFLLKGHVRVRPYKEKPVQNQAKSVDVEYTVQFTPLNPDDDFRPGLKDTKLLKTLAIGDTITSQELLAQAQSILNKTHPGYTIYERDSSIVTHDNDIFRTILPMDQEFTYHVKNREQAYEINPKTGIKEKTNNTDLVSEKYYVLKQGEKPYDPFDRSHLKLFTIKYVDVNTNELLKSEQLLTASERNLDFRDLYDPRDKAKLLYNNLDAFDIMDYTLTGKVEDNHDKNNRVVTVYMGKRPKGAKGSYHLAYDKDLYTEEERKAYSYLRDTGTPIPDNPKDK

[3] = target: T3, Neuropeptide Y receptor type 1 (Homo sapiens, UniProt P25929); test: Fluorescence-based counterscreen for potentiators or agonists of NPY-Y2: cell-based high-throughput dose response assay for potentiators or agonists of NPY-Y1.; type: functional
T3 sequence (P25929 whole entry): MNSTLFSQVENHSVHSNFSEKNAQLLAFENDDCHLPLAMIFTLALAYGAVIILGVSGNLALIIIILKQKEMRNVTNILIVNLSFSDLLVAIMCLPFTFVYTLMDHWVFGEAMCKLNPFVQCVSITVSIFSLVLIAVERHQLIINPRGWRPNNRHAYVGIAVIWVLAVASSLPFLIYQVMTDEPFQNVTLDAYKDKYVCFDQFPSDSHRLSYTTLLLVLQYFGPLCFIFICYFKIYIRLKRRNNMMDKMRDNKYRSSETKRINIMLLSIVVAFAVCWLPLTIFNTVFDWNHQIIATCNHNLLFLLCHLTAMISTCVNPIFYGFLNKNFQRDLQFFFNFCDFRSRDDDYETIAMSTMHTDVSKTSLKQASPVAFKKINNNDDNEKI

[4] = target: Photoreceptor-specific nuclear receptor (Homo sapiens, UniProt Q9Y5X4); type: functional, cell-based;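 note: CHO-S cells with Gal4-NCOR and VP16-NR2E3 two-hybrid luciferase reporter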
Chain of Photoreceptor-specific nuclear receptor (Q9Y5X4 whole entry, the tested form may be a part): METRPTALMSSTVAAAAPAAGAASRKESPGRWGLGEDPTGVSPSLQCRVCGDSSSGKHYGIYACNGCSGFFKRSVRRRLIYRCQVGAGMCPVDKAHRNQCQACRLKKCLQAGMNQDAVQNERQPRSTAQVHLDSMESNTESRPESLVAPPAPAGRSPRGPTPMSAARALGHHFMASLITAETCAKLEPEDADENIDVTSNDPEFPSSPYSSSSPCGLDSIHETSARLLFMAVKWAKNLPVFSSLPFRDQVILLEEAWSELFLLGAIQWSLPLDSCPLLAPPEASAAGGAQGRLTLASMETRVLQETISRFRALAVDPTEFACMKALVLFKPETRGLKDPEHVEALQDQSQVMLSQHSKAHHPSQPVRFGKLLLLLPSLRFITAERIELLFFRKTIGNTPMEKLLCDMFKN

[5] = target: T4, Neuropeptide Y receptor type 2 (Homo sapiens, UniProt P49146); test: Fluorescence-based cell-based high-throughput dose response assay for agonists of NPY-Y2. [Related pubchem assays: 1703 (Screening assay (CNGC inhibitors).), 1359 (Screening assay (NPY-Y2 potentiators or agonists).), 1304 (Screening assay (NPY-Y1 potentiators or agonists).), 1710 (Screening assay (NPY-Y2 agonists).), 1791 (Summary AID.)]; type: functional
T4 sequence (P49146 whole entry): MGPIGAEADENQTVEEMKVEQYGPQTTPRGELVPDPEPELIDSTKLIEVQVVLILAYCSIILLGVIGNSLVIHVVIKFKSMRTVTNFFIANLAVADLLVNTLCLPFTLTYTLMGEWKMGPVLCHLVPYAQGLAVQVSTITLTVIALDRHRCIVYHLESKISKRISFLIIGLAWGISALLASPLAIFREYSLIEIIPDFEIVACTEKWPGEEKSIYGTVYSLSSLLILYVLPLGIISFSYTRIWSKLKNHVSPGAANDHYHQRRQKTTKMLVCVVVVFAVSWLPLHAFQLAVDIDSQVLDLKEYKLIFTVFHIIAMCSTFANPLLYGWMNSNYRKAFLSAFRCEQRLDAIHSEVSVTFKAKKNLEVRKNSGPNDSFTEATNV

[6] = target: T4, Neuropeptide Y receptor type 2; test: Fluorescence-based cell-based high-throughput dose response assay for potentiators or agonists of NPY-Y2. [Related pubchem assays: 1539 (Screening assay (NPY-Y2 potentiators or agonists).), 1703 (Screening assay (CNGC inhibitors).), 1359 (Screening assay (NPY-Y2 potentiators or agonists).), 1304 (Screening assay (NPY-Y1 potentiators or agonists).) …; type: functional
[7] = target: T3, Neuropeptide Y receptor type 1; test: Fluorescence-based counterscreen for agonists of NPY-Y2: cell-based high-throughput dose response assay for agonists of NPY-Y1.; type: functional
[8] = target: T5, Replicative DNA helicase DnaB (Mycobacterium tuberculosis, UniProt P9WMR3); test: DnaB intein splicing inhibitors, dose response, biochemical, cell-free fluorescence (AID 449749); type: functional
T5 sequence (P9WMR3 whole entry): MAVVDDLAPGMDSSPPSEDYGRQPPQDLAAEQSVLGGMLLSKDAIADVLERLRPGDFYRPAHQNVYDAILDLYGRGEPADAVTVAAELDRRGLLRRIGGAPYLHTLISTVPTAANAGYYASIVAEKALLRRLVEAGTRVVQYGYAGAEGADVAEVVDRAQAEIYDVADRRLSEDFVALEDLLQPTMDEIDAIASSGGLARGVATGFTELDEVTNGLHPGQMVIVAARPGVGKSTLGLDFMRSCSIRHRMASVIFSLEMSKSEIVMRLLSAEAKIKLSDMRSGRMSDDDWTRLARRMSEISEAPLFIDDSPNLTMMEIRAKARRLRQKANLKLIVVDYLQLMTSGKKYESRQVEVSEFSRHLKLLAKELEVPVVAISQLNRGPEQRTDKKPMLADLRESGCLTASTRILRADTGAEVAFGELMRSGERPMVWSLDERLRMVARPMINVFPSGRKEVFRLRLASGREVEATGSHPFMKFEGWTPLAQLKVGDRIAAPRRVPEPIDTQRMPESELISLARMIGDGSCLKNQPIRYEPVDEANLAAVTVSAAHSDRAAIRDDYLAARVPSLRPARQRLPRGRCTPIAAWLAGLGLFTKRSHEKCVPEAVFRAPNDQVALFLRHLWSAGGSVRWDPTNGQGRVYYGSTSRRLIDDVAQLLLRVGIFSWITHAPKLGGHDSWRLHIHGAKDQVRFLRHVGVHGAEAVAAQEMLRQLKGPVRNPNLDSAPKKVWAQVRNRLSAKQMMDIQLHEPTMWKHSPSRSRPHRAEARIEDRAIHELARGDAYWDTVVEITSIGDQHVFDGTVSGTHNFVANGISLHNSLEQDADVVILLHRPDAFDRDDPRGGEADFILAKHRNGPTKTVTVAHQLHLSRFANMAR

[9] = target: Ion channel NompC (Danio rerio, UniProt Q7T1G6); test: Fluorescence counterscreen assay for TRPML3 agonists: dose response cell-based high-throughput screening assay to identify agonists of the transient receptor potential channel N1 (TRPN1). [Related pubchem assays: 1526, 1424, 1448 ]; type: functional
Chain of Ion channel NompC (Q7T1G6 whole entry): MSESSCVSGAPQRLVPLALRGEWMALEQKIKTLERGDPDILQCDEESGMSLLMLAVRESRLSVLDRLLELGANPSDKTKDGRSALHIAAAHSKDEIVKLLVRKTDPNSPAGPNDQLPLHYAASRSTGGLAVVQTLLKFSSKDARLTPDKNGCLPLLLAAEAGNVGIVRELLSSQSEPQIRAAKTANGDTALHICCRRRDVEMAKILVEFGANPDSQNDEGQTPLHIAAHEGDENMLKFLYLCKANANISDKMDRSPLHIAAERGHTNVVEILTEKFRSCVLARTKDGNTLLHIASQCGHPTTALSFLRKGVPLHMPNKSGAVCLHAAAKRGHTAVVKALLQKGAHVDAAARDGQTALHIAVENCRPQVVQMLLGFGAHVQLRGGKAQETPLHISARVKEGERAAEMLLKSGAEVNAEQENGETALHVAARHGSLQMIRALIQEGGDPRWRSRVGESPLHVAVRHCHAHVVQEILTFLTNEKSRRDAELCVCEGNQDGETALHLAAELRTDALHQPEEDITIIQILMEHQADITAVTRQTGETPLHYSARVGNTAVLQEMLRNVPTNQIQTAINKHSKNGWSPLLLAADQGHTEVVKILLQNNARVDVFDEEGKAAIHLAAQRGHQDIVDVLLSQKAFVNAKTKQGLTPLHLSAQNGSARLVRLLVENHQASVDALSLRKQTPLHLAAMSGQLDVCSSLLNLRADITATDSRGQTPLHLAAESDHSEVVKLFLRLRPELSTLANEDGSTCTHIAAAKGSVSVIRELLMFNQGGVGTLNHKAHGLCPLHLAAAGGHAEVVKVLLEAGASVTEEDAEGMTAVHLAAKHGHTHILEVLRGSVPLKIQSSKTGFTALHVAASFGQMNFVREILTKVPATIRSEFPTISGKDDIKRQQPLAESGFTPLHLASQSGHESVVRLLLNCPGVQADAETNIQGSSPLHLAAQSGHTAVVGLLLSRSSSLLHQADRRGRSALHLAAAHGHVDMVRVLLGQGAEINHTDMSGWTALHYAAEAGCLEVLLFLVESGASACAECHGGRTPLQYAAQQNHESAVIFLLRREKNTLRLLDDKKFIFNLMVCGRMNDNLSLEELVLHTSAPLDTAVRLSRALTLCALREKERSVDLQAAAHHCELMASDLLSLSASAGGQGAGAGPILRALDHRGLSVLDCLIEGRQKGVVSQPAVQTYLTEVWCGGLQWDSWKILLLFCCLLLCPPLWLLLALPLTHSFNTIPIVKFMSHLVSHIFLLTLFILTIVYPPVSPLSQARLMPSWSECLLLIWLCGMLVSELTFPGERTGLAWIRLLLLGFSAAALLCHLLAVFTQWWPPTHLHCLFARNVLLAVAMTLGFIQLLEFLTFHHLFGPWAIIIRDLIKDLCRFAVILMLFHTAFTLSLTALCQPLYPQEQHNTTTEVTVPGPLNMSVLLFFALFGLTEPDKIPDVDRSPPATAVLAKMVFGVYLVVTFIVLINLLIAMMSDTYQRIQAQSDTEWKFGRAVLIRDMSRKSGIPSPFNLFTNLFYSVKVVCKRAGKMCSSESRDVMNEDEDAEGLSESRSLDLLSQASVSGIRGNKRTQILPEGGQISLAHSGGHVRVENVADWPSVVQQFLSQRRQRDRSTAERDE

[10] = target: Mucolipin-3 (Homo sapiens, UniProt Q8TDD5); test: Dose response cell-based high-throughput screening assay for agonists of the transient receptor potential channel ML3 (TRPML3). [Related pubchem assays: 1526, 1424, 1448 ]; type: functional
Chain of Mucolipin-3 (Q8TDD5 whole entry, the tested form may be a part): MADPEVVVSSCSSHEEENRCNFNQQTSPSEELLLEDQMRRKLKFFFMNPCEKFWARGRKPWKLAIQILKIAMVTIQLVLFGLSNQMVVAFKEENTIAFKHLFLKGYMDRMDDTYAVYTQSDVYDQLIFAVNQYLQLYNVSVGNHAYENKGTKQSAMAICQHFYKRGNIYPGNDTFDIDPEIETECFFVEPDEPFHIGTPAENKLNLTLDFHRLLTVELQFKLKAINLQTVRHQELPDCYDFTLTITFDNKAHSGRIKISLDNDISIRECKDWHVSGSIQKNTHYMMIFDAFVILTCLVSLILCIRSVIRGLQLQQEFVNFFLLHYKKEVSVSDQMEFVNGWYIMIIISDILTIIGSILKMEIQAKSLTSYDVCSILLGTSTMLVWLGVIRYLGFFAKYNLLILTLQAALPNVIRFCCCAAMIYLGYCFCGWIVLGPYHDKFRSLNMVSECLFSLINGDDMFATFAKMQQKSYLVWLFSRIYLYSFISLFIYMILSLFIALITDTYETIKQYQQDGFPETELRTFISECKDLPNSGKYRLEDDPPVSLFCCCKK

[11] = target: T6, Carboxy-terminal domain RNA polymerase II polypeptide A small phosphatase 1 (Homo sapiens, UniProt Q9GZU7); test: CTDSP1 inhibitors, concentration-response, biochemical, absorbance readout, ultra-high-throughput screen actives (AID 540297); type: functional
T6 sequence (Q9GZU7 whole entry): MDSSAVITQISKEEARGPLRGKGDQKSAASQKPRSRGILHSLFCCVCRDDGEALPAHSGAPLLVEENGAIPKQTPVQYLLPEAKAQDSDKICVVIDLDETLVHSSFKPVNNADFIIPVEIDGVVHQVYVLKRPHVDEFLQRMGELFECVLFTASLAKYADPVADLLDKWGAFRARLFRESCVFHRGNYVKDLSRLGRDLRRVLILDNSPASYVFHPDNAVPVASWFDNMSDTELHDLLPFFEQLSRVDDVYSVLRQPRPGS

[12] = Trypanosoma cruzi growth suppression in host cells – NIH3T3 host cells, beta-gal luminescence, confirmation (AID 2044); type: functional, cell-based;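 note: intracellular parasites grown in NIH/3T3 mouse fibroblasts as host cells; luminescent beta-galactosidase reporter signal from transgenic T. cruzi replicating inside host cells; inhibitors lower the luminescence signal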
[13] = target: T7, Microphthalmia-associated transcription factor (Homo sapiens, UniProt O75030); test: reducers of TRPM1 reporter luminescence, concentration series – cell-based, SK-MEL-5, cherry-picked, set 3, MITF inhibitor project, dose response (AID 493073); type: functional;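 note: SK-MEL-5 melanoma cells with luciferase driven by the MITF target TRPM1 promoter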
T7 sequence (O75030 whole entry): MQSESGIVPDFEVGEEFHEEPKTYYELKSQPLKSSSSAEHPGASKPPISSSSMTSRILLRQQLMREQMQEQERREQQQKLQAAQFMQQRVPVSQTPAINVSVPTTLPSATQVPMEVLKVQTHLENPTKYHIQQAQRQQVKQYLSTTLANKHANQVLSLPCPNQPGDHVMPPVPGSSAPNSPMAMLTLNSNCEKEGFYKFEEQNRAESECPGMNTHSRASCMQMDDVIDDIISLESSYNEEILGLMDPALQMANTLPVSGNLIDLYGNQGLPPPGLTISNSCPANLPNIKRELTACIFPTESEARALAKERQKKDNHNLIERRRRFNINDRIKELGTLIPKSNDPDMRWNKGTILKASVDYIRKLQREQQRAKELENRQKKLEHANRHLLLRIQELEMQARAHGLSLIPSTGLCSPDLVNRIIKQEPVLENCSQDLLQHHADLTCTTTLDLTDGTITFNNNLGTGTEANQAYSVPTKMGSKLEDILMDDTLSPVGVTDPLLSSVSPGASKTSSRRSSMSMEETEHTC

[14] = NIH3T3 cell viability loss – ATP luminescence, mouse fibroblasts, counter-screen, dose response (AID 2010); type: functional, cell-based;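 note: cells exposed to compound for about 90 hours before reading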
[15] = target: Bcl-2-like protein 1 (Homo sapiens, UniProt Q07817); test: blockers of BCLXL peptide binding – biochemical, fluorescence polarization, 1536-well, selectivity assay for MCL1 inhibitor project, dose response (AID 2218)
Chain of Bcl-2-like protein 1 (Q07817 whole entry): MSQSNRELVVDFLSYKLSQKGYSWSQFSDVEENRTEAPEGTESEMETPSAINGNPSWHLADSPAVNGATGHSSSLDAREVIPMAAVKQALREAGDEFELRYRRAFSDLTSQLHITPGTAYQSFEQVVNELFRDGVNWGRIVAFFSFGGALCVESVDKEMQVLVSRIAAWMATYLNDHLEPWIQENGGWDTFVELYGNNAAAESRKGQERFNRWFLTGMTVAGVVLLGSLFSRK

[16] = NIH-3T3 fibroblast cytotoxicity, dose response, cytotoxicity control, cell-based, fluorescence, Alamar Blue, secondary assay (AID 2327); type: functional;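 note: NIH-3T3 mouse fibroblasts cultured with fluconazole at 8 µg/mL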
[17] = target: Induced myeloid leukemia cell differentiation protein Mcl-1 (Homo sapiens, UniProt Q07820); test: blockers of MCL1 binding to BIM peptide – biochemical, fluorescence polarization, BIM-BH3 peptide, 1536-well, dose response (AID 2217)
Chain of Induced myeloid leukemia cell differentiation protein Mcl-1 (Q07820 whole entry): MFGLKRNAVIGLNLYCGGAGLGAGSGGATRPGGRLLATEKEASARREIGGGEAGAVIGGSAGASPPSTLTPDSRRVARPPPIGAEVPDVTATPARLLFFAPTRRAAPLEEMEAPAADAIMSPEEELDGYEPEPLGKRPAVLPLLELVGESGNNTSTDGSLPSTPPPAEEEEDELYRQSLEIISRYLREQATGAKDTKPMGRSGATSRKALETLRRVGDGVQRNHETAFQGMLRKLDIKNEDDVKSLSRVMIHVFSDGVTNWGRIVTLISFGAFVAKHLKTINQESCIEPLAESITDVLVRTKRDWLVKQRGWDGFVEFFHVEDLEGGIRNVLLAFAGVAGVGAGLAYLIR

[18] = A Cell Based Secondary Assay To Explore Cytotoxicity of Compounds that Sensitize Mycobacterium Tuberculosis to Beta-Lactam Antibiotics.; type: functional

Structure (SMILES): O=[N+]([O-])c1cc(C(F)(F)F)cc([N+](=O)[O-])c1NCCNC(=S)Nc1ccc(Cl)c(Cl)c1
- EC50 [1]: 303 µM (active)
- EC50 [2]: 7.06 µM (inconclusive)
- EC50 [3]: 11.2 µM (not active)
- IC50 [4]: 7.03 µM (active)
- EC50 [5]: 8.24 µM (active)
- EC50 [6]: 8.69 µM (active)
- EC50 [7]: 6 µM (active)
- AC50 [8]: 4.92 µM (active)

Structure (SMILES): Cc1onc(-c2ccc(Cl)cc2)c1-c1ccnn1S(=O)(=O)c1cccc(C(F)(F)F)c1
- EC50 [9]: > 29.9 µM (not active)
- EC50 [10]: 4.26 µM (active)

Structure (SMILES): Cc1nc2ccccn2c1C(=O)N/N=C/c1ccc([N+](=O)[O-])o1
- IC50 [11]: 5.79 µM (active)
- EC50 [12]: 0.139 µM (active)
- AC50 [13]: 8.03 µM (active)
- EC50 [14]: 10.9 µM (active)
- IC50 [15]: 55.2 µM (not active)
- EC50 [16]: > 160 µM (inactive)
- IC50 [17]: 13.2 µM (not active)

Structure (SMILES): O=C(COc1ccccc1)Nc1cccc(-c2nnc(-c3ccccc3)o2)c1
- CC50 [18]: > 40 µM (active)

Reference: ChEMBL document CHEMBL1201862, “PubChem BioAssay data set” (2004)
